Source: patent US7122577B1, “Composition comprising a carrier and a purified mycobacterial lipid cell-wall component and its use in the treatment and diagnosis of disease” (priority 1997, dated 2006)

System: adjuvant arthritis
Conditions: rat, in vivo

With mycolic acids [MA tb] the Toxic effects was “No toxic effects” and the “Toxic effects within the tested doses” value was “No toxic effects”.
